Molecular target: T1, Adenosine receptor A1 (Rattus norvegicus, UniProt P25099)
T1 sequence (P25099 whole entry): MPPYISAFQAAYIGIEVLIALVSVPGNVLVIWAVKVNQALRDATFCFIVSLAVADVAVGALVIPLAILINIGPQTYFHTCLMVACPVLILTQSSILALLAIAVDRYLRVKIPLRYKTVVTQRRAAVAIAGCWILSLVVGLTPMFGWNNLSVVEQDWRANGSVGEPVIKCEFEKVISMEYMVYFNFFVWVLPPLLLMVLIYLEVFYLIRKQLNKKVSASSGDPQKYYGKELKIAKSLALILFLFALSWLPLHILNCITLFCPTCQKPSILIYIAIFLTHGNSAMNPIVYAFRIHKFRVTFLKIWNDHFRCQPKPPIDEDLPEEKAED
Assay: Binding affinity against adenosine A1 receptor in rat brain membrane using N6-[3H]cyclohexyladenosine

Compound: CC(Sc1nc(SC(C)C(N)=O)c2cnn(-c3ccccc3)c2n1)C(N)=O (stereo unspecified) [2-[6-(1-Carbamoyl-ethylsulfanyl)-1-phenyl-1H-pyrazolo[3,4-d]pyrimidin-4-ylsulfanyl]-propionamide]
- Ki: 370 nM
